# Assay results reported in EP4635500A1, “THERAPEUTIC AGENT FOR BACTERIAL INFECTION” (Sumitomo Pharma Co., Ltd., priority 2022, dated 2024).
# Read-outs that look alike come from different tables or passages of the source.
# Experiments:
# A. baumannii = experiment: MIC, broth microdilution, CDC/FDA Antibiotic Resistance Isolate Bank (Example 7, Tables 9, 13, 14); format: cell-based, Acinetobacter baumannii; conditions: for MIC: read-out: MIC
# P. aeruginosa = experiment: MIC, broth microdilution, CDC/FDA Antibiotic Resistance Isolate Bank (Example 7, Tables 10, 15); format: cell-based; conditions: for MIC: Pseudomonas aeruginosa, read-out: MIC
# [1] = MIC distribution, metallo-β-lactamase-producing A. baumannii, inhibitor µg/mL in parentheses
# [2] = 26 metallo-carbapenemase-producing P. aeruginosa strains, β-lactamase inhibitor µg/mL in parentheses
# [3] = 96 strains of P. aeruginosa, β-lactamase inhibitor µg/mL in parentheses
smiles,measurement,setting,value
"NCC[C@H](O)C(=O)N[C@@H]1C[C@H](N)[C@@H](O[C@H]2O[C@H](CN)[C@@H](O)[C@H](O)[C@H]2O)[C@H](O)[C@H]1O[C@H]1O[C@H](CO)[C@@H](O)[C@H](N)[C@H]1O [Amikacin, amikacin]",MIC,"A. baumannii; Acinetobacter baumannii, A. baumannii KUB No. 5567, AR Bank #70, OXA-58, OXA-100",1 µg/mL
same,MIC,"A. baumannii; Acinetobacter baumannii, A. baumannii KUB No. 5575, AR Bank #78, OXA-71",32 µg/mL
same,MIC,"A. baumannii; Acinetobacter baumannii, A. baumannii KUB No. 5580, AR Bank #83, OXA-23, OXA-69, NDM-1",> 64 µg/mL
same,MIC,"A. baumannii; Acinetobacter baumannii, A. baumannii KUB No. 5585, AR Bank #88, OXA-64, NDM-1",32 µg/mL
same,MIC,"A. baumannii; Acinetobacter baumannii, A. baumannii KUB No. 5598, AR Bank #101, OXA-24, OXA-65",64 µg/mL
same,MIC,"A. baumannii; Acinetobacter baumannii, A. baumannii KUB No. 5599, AR Bank #102, OXA-66",> 64 µg/mL
same,MIC,"A. baumannii; Acinetobacter baumannii, A. baumannii KUB No. 5706, AR Bank #273, OXA-23, OXA-66",> 64 µg/mL
same,MIC,"A. baumannii; Acinetobacter baumannii, A. baumannii KUB No. 5707, AR Bank #274, OXA-66, OXA-72",16 µg/mL
same,MIC,"A. baumannii; Acinetobacter baumannii, A. baumannii KUB No. 5708, AR Bank #275, OXA-23, OXA-66",> 64 µg/mL
same,MIC,"A. baumannii; Acinetobacter baumannii, A. baumannii KUB No. 5709, AR Bank #276, no carbapenemase genes (-)",64 µg/mL
same,MIC,"A. baumannii; Acinetobacter baumannii, A. baumannii KUB No. 5710, AR Bank #277, OXA-24, OXA-65",16 µg/mL
same,MIC,"A. baumannii; Acinetobacter baumannii, A. baumannii KUB No. 5711, AR Bank #278, OXA-23, OXA-66",> 64 µg/mL
same,MIC,"A. baumannii; Acinetobacter baumannii, A. baumannii KUB No. 5712, AR Bank #279, OXA-23, OXA-66",> 64 µg/mL
same,MIC,"A. baumannii; Acinetobacter baumannii, A. baumannii KUB No. 5713, AR Bank #280, OXA-66",4 µg/mL
same,MIC,"A. baumannii; Acinetobacter baumannii, A. baumannii KUB No. 5714, AR Bank #281, OXA-82",2 µg/mL
same,MIC,"A. baumannii; Acinetobacter baumannii, A. baumannii KUB No. 5715, AR Bank #282, OXA-23, OXA-66",> 64 µg/mL
same,MIC,"A. baumannii; Acinetobacter baumannii, A. baumannii KUB No. 5716, AR Bank #283, OXA-23, OXA-66",> 64 µg/mL
same,MIC,"A. baumannii; Acinetobacter baumannii, A. baumannii KUB No. 5717, AR Bank #284, OXA-24, OXA-65",32 µg/mL
same,MIC,"A. baumannii; Acinetobacter baumannii, A. baumannii KUB No. 5718, AR Bank #285, OXA-24, OXA-65",64 µg/mL
same,MIC,"A. baumannii; Acinetobacter baumannii, KUB No. 5719, AR Bank #286",> 64 µg/mL
same,MIC,"A. baumannii; Acinetobacter baumannii, KUB No. 5720, AR Bank #287",64 µg/mL
same,MIC,"A. baumannii; Acinetobacter baumannii, KUB No. 5721, AR Bank #288",> 64 µg/mL
same,MIC,"A. baumannii; Acinetobacter baumannii, KUB No. 5722, AR Bank #259",32 µg/mL
same,MIC,"A. baumannii; Acinetobacter baumannii, KUB No. 5723, AR Bank #290",> 64 µg/mL
same,MIC,"A. baumannii; Acinetobacter baumannii, KUB No. 5724, AR Bank #291",> 64 µg/mL
same,MIC,"A. baumannii; Acinetobacter baumannii, KUB No. 5725, AR Bank #292",32 µg/mL
same,MIC,"A. baumannii; Acinetobacter baumannii, KUB No. 5726, AR Bank #293",16 µg/mL
same,MIC,"A. baumannii; Acinetobacter baumannii, KUB No. 5727, AR Bank #294",64 µg/mL
same,MIC,"A. baumannii; Acinetobacter baumannii, KUB No. 5728, AR Bank #295",2 µg/mL
same,MIC,"A. baumannii; Acinetobacter baumannii, KUB No. 5729, AR Bank #296",> 64 µg/mL
same,MIC,"A. baumannii; Acinetobacter baumannii, KUB No. 5730, AR Bank #297",32 µg/mL
same,MIC,"A. baumannii; Acinetobacter baumannii, KUB No. 5731, AR Bank #298",> 64 µg/mL
same,MIC,"A. baumannii; Acinetobacter baumannii, KUB No. 5732, AR Bank #299",> 64 µg/mL
same,MIC,"A. baumannii; Acinetobacter baumannii, KUB No. 5733, AR Bank #300",> 64 µg/mL
same,MIC,"A. baumannii; Acinetobacter baumannii, KUB No. 5734, AR Bank #301",64 µg/mL
same,MIC,"A. baumannii; Acinetobacter baumannii, KUB No. 5735, AR Bank #302",> 64 µg/mL
same,MIC,"A. baumannii; Acinetobacter baumannii, KUB No. 5736, AR Bank #303",> 64 µg/mL
same,MIC,"A. baumannii; Acinetobacter baumannii, KUB No. 5737, AR Bank #304",32 µg/mL
same,MIC,"A. baumannii; Acinetobacter baumannii, KUB No. 5738, AR Bank #305",32 µg/mL
same,MIC,"A. baumannii; Acinetobacter baumannii, KUB No. 5739, AR Bank #306",64 µg/mL
same,MIC,"A. baumannii; Acinetobacter baumannii, KUB No. 5740, AR Bank #307",> 64 µg/mL
same,MIC,"A. baumannii; Acinetobacter baumannii, KUB No. 5741, AR Bank #308",> 64 µg/mL
same,MIC,"A. baumannii; Acinetobacter baumannii, KUB No. 5742, AR Bank #309",> 64 µg/mL
same,MIC,"A. baumannii; Acinetobacter baumannii, KUB No. 5743, AR Bank #310",> 64 µg/mL
same,MIC,"A. baumannii; Acinetobacter baumannii, KUB No. 5744, AR Bank #311",> 64 µg/mL
same,MIC,"A. baumannii; Acinetobacter baumannii, KUB No. 5745, AR Bank #312",1 µg/mL
same,MIC,"A. baumannii; Acinetobacter baumannii, KUB No. 5746, AR Bank #313",2 µg/mL
same,MIC50,"A. baumannii; Acinetobacter baumannii, 55 isolates of A. baumannii, read-out: MIC50",64 µg/mL
same,MIC80,"A. baumannii; Acinetobacter baumannii, 55 isolates of A. baumannii, read-out: MIC80",> 64 µg/mL
same,MIC90,"A. baumannii; Acinetobacter baumannii, 55 isolates of A. baumannii, read-out: MIC90",> 64 µg/mL
same,Number of isolates at MIC 2 µg/mL,A. baumannii; [1],2
same,Number of isolates at MIC 32 µg/mL,A. baumannii; [1],1
same,Number of isolates at MIC >64 µg/mL,A. baumannii; [1],1
same,MIC against 26 metallo-carbapenemase-producing strains MIC50,P. aeruginosa; [2],>64 µg(mL)
same,MIC against 26 metallo-carbapenemase-producing strains MIC90,P. aeruginosa; [2],>64 µg(mL)
same,MIC against 96 strains of P. aeruginosa MIC50,P. aeruginosa; [3],8 µg(mL)
same,MIC against 96 strains of P. aeruginosa MIC90,P. aeruginosa; [3],>64 µg(mL)
same,MIC,"P. aeruginosa; P. aeruginosa KUB No. 579, AR Bank # 447",8 µg/mL
same,MIC,"P. aeruginosa; P. aeruginosa KUB No. 5083, AR Bank # 250",> 64 µg/mL
same,MIC,"P. aeruginosa; P. aeruginosa KUB No. 5551, AR Bank # 54",4 µg/mL
same,MIC,"P. aeruginosa; P. aeruginosa KUB No. 5561, AR Bank # 64",1 µg/mL
same,MIC,"P. aeruginosa; P. aeruginosa KUB No. 5587, AR Bank # 90",32 µg/mL
same,MIC,"P. aeruginosa; P. aeruginosa KUB No. 5589, AR Bank # 92",> 64 µg/mL
same,MIC,"P. aeruginosa; P. aeruginosa KUB No. 5591, AR Bank # 94",32 µg/mL
same,MIC,"P. aeruginosa; P. aeruginosa KUB No. 5592, AR Bank # 95",0.5 µg/mL
same,MIC,"P. aeruginosa; P. aeruginosa KUB No. 5597, AR Bank # 100",> 64 µg/mL
same,MIC,"P. aeruginosa; P. aeruginosa KUB No. 5600, AR Bank # 103",32 µg/mL
same,MIC,"P. aeruginosa; P. aeruginosa KUB No. 5602, AR Bank # 105",8 µg/mL
same,MIC,"P. aeruginosa; P. aeruginosa KUB No. 5605, AR Bank # 108",> 64 µg/mL
same,MIC,"P. aeruginosa; P. aeruginosa KUB No. 5607, AR Bank # 110",> 64 µg/mL
same,MIC,"P. aeruginosa; P. aeruginosa KUB No. 5608, AR Bank # 111",> 64 µg/mL
same,MIC,"P. aeruginosa; P. aeruginosa KUB No. 5662, AR Bank # 229",16 µg/mL
same,MIC,"P. aeruginosa; P. aeruginosa KUB No. 5663, AR Bank # 230",> 64 µg/mL
same,MIC,"P. aeruginosa; P. aeruginosa KUB No. 5664, AR Bank # 231",8 µg/mL
same,MIC,"P. aeruginosa; P. aeruginosa KUB No. 5665, AR Bank # 232",8 µg/mL
same,MIC,"P. aeruginosa; P. aeruginosa KUB No. 5666, AR Bank # 23",4 µg/mL
